The values below come from ChEMBL document CHEMBL3862026, “Synthesis and biological evaluation of ranitidine analogs as multiple-target-directed cognitive enhancers for the treatment of Alzheimer's disease” (Bioorg Med Chem Lett, 2016).

pIC50: −log10 of the molar value.

One test concerns the target Acetylcholinesterase (Electrophorus electricus, UniProt O42275). Description: Inhibition of electric eel AChE using acetylthiocholine as substrate preincubated for 8 mins followed by substrate addition by Ellman's method.
The target of another test is Cholinesterase (Equus caballus, UniProt P81908). Nature of the test: Inhibition of equine serum BuChE using butyrylthiocholine as substrate preincubated for 8 mins followed by substrate addition by Ellman's method. In general terms: In Ellman's method for cholinesterases, released thiocholine reacts with DTNB.
Test [1] concerns the target T1, Muscarinic acetylcholine receptor M1 (Rattus norvegicus) (UniProt P08482).
T1 sequence (whole entry): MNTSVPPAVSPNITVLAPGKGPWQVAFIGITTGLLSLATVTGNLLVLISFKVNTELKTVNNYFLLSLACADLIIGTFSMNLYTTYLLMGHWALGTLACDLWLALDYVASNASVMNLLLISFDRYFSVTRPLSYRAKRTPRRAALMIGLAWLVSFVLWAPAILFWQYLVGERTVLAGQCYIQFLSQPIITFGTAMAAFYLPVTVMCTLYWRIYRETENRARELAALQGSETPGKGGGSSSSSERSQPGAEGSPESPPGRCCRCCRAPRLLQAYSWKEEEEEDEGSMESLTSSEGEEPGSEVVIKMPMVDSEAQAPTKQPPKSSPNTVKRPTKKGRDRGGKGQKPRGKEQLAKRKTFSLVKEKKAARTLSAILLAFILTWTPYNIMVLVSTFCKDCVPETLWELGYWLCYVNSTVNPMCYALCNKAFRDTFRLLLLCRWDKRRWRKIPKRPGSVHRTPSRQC
Nature of the test: Displacement of [3H]QNB from muscarinic M1 receptor in rat brain homogenates at 1 uM after 60 mins relative to control. In kind it is tissue-based. (In a radioligand displacement assay an active substance lowers the binding of a labelled ligand.)

In test [2] the target is T2, Muscarinic acetylcholine receptor M2 (Rattus norvegicus) (UniProt P10980).
T2 sequence (whole entry): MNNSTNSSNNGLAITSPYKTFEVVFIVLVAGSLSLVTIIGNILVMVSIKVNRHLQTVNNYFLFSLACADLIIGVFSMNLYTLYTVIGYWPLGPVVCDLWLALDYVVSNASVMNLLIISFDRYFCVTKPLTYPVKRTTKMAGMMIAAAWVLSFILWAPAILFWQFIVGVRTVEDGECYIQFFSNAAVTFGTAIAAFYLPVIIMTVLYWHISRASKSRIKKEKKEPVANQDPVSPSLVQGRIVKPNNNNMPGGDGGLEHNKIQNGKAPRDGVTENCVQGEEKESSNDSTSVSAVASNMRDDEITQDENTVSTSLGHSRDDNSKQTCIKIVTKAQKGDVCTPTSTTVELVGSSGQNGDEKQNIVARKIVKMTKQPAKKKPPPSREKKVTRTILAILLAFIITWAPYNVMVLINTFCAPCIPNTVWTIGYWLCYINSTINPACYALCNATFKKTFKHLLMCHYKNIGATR
Description: Displacement of [3H]QNB from muscarinic M2 receptor in rat brain homogenates at 1 uM after 60 mins relative to control. In kind it is tissue-based.

For test [3], the target named is Muscarinic acetylcholine receptor M3 (Rattus norvegicus) (UniProt P08483). Nature of the test: Displacement of [3H]QNB from muscarinic M3 receptor in rat brain homogenates at 1 uM after 60 mins relative to control. The format is tissue-based.
Test [4] has as its target T3, Muscarinic acetylcholine receptor M4 (Rattus norvegicus) (UniProt P08485).
T3 sequence (whole entry): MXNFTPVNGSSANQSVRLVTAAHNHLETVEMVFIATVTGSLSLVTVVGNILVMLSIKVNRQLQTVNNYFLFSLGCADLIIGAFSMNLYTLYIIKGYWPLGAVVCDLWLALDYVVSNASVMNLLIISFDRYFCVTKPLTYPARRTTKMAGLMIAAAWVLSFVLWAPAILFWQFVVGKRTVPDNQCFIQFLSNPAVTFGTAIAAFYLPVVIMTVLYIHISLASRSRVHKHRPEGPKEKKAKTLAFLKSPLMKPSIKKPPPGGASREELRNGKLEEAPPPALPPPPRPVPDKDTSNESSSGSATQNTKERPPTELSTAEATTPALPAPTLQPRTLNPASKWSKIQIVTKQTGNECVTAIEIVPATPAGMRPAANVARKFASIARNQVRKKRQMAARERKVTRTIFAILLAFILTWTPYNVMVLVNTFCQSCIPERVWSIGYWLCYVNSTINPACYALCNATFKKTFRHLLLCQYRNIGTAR
Nature of the test: Displacement of [3H]QNB from muscarinic M4 receptor in rat brain homogenates at 1 uM after 60 mins relative to control. In kind it is tissue-based.

Sequence of Muscarinic acetylcholine receptor M3 (Rattus norvegicus) (P08483 whole entry, looked up): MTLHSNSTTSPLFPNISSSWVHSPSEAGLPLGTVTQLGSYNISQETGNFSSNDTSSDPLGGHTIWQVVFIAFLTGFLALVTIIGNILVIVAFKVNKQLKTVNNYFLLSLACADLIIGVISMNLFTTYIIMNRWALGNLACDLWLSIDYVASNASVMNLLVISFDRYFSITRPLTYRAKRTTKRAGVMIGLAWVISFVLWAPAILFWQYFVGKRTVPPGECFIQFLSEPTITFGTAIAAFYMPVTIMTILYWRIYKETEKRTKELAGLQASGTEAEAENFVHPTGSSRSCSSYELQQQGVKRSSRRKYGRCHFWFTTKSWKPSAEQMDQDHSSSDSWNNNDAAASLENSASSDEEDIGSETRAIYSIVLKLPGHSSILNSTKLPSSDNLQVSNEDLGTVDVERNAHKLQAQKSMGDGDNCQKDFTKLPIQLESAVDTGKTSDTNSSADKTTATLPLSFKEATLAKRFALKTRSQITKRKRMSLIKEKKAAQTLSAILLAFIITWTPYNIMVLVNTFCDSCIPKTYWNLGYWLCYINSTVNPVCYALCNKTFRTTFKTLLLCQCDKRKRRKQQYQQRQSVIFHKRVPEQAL
Sequence of Cholinesterase (P81908 whole entry): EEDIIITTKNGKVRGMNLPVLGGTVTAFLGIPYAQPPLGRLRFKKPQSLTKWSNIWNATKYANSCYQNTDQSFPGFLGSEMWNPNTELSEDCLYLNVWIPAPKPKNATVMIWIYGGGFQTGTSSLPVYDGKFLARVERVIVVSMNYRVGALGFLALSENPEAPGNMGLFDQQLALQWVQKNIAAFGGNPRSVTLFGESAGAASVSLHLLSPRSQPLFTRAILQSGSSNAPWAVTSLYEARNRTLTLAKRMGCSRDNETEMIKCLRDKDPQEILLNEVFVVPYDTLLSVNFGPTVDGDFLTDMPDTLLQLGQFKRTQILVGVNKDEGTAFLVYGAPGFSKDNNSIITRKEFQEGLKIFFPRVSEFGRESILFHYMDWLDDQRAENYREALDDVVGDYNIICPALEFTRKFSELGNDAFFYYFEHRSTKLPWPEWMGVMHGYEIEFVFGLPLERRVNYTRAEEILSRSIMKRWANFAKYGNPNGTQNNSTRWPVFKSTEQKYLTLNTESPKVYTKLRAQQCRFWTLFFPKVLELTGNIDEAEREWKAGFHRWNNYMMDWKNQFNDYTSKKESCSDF
Sequence of Acetylcholinesterase (O42275 whole entry): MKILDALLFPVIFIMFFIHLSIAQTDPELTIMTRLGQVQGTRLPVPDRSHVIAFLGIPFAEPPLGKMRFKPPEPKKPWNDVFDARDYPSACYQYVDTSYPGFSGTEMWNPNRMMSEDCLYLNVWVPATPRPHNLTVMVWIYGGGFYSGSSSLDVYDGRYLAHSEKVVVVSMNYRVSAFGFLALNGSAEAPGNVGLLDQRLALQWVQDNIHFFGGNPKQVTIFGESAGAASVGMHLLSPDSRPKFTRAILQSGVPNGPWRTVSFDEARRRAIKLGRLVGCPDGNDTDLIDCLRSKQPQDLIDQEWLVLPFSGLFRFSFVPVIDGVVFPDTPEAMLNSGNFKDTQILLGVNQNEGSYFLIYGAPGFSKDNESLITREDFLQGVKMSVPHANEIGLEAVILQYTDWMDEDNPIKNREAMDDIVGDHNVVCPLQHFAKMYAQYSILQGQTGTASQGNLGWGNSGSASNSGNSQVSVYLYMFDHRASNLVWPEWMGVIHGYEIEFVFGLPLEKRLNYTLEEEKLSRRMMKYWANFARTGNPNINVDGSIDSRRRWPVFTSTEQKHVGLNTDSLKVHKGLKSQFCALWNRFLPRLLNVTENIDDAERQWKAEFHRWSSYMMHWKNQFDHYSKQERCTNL

By pIC50 is commonly meant the negative decadic logarithm of the IC50, by convention in mol/L. What is called inhibition is the relative decrease from the control value, in per cent. Low values mean a weak effect, high ones a strong effect. Take `CN(C)Cc1ccc(CSCCNc2nnc(-c3ccccc3)cc2[N+](=O)[O-])o1`: the pIC50 on Acetylcholinesterase is 6.59; against Cholinesterase it was 5.35. Further, the inhibition in test [1] is 40%; in test [2] it was 34%; in test [3] it was 38%; in test [4] it was 16%.

In the case of `CC1CC(=O)N(CCSCc2ccc(CN(C)C)o2)C1=O` (stereo not given), the values for the pIC50 against Acetylcholinesterase and against Cholinesterase were 4.48 and less than 4.30, respectively.

Take `CN(C)Cc1ccc(CSCCN2C(=O)c3cccc4cccc(c34)C2=O)o1`: the pIC50 on Acetylcholinesterase was 5.90; against Cholinesterase it was 5.14.

Regarding `CN(C)Cc1ccc(CSCCNc2nnc(-c3cccs3)c(-c3cccs3)c2[N+](=O)[O-])o1`, the pIC50 is 6.46 on Acetylcholinesterase and 5.64 against Cholinesterase.

Consider `CCc1nnc(NCCSCc2ccc(CN(C)C)o2)c([N+](=O)[O-])c1CC`, for which the pIC50 at Acetylcholinesterase was 5.60; against Cholinesterase, 4.73.

In the case of `CN(C)Cc1ccc(CSCCNc2nncc(-c3ccccc3)c2[N+](=O)[O-])o1`, the pIC50 on Acetylcholinesterase is 6.34; at Cholinesterase, 4.64. In addition, the inhibition was 40% in test [1], 37% in test [2], 27% in test [3] and 18% in test [4].

As to `Cc1c(-c2ccccc2)nnc(NCCSCc2ccc(CN(C)C)o2)c1[N+](=O)[O-]`, the pIC50 at Acetylcholinesterase is 6.80; against Cholinesterase, 5.43. For the same compound, the inhibition turned out to be 84% in test [1], 72% in test [2], 63% in test [3] and 58% in test [4].

`CN(C)Cc1ccc(CSCCN2C(=O)c3ccccc3C2=O)o1`: the pIC50 against Acetylcholinesterase was 5.45; on Cholinesterase, 4.84.

For the compound `CS/C(=N\S(=O)(=O)c1ccc(C)cc1)NCCSCc1ccc(CN(C)C)o1`, the pIC50 on Acetylcholinesterase and at Cholinesterase was less than 4.30 throughout. Further, the inhibition was 37.5% in test [1], 18.5% in test [3] and 4.2% in test [4].

With `Cc1ccc(S(=O)(=O)NCCSCc2ccc(CN(C)C)o2)cc1`, the pIC50 on Acetylcholinesterase was less than 4.30; on Cholinesterase it was 4.33.

Turning to `Cc1nnc(NCCSCc2ccc(CN(C)C)o2)c([N+](=O)[O-])c1C`, the pIC50 against Acetylcholinesterase was 5.57. Besides, the inhibition in test [1] is 74%; in test [2], 63%; in test [3], 48%; in test [4], 67%.

Take `CN(C)Cc1ccc(CSCCN/C(=C/[N+](=O)[O-])N2CCCCC2)o1`: the pIC50 on Acetylcholinesterase was 5.39; against Cholinesterase, 4.67. Further, the inhibition in test [1] is 72.1%; in test [2] it was 54%; in test [3], 41.5%; in test [4], 47.7%.

Turning to `CN(C)Cc1ccc(CSCCNc2ncccc2C#N)o1`, the pIC50 against Acetylcholinesterase was 5.27; at Cholinesterase it was 5.08.

`Cc1cccc(Nc2ccccc2C(=O)NCCSCc2ccc(CN(C)C)o2)c1C`: the pIC50 on Acetylcholinesterase and against Cholinesterase was less than 4.30 throughout. Also, the inhibition in test [1] is 77.4%; in test [2], 50.8%; in test [3] it was 69.6%; in test [4] it was 33.8%.

On to `CN(C)Cc1ccc(CSCCN2C(=O)c3cccc4cc([N+](=O)[O-])cc(c34)C2=O)o1`, for which the pIC50 at Acetylcholinesterase was 6.82; on Cholinesterase it was 5.10.

As for `C=C1C(C)=NN/C(=C\[N+](=O)[O-])N1CCSCc1ccc(CN(C)C)o1`, the pIC50 is 5.78 against Acetylcholinesterase and 5.15 against Cholinesterase. Further, the inhibition in test [1] came out at 88.8%; in test [2], 81%; in test [3], 90.4%; in test [4] it was 92.1%.

Take `CN(C)Cc1ccc(CSCCN2C(=O)c3ccc([N+](=O)[O-])cc3C2=O)o1`: the figures for the pIC50 against Acetylcholinesterase and on Cholinesterase were 4.34 and less than 4.30, respectively.

On to `CN(C)Cc1ccc(CSCCNc2nnccc2[N+](=O)[O-])o1`, for which the pIC50 on Acetylcholinesterase was 6.33. For the same compound, the inhibition in test [1] stood at 80%; in test [2], 97%; in test [3] it was 32%; in test [4] it was 74%.

In the case of `CN(C)Cc1ccc(CSCCNc2ccc(Cl)nn2)o1`, the results for the pIC50 on Acetylcholinesterase and at Cholinesterase were 4.98 and less than 4.30, respectively. Moreover, the inhibition is 25.2% in test [1], 9.8% in test [2], 2.3% in test [3] and 7.7% in test [4].

For the compound `CN(C)Cc1ccc(CSCCNc2nc(N)no2)o1`, the pIC50 on Acetylcholinesterase and against Cholinesterase was less than 4.30 throughout. For the same compound, the inhibition in test [1] worked out at 69.9%; in test [2], 72.8%; in test [3], 49.8%; in test [4], 42.7%.

As to `CN(C)Cc1ccc(CSCCN2C(=O)CCC2=O)o1`, the results for the pIC50 against Acetylcholinesterase and against Cholinesterase were 4.93 and less than 4.30, respectively.

For `CN(C)Cc1ccc(CSCCN/C(=C/[N+](=O)[O-])N/N=C/c2ccccc2)o1`, the pIC50 at Acetylcholinesterase is 5.93; at Cholinesterase, 5.53. For the same compound, the inhibition in test [1] stood at 88.5%; in test [2], 67%; in test [3], 66.6%; in test [4], 62.3%.

For the compound `CN(C)Cc1ccc(CSCCNc2nc(N)n[nH]2)o1`, the pIC50 on Acetylcholinesterase and on Cholinesterase was less than 4.30 in each case. Moreover, the inhibition in test [1] stood at 57.4%; in test [2] it was 71.3%; in test [3], 30.1%; in test [4], 43.6%.

The compound `Cc1nnc(NCCSCc2ccc(CN(C)C)o2)c([N+](=O)[O-])c1-c1ccccc1` showed a pIC50 against Acetylcholinesterase of 6.14. In addition, the inhibition worked out at 60% in test [1], 40% in test [2], 52% in test [3] and 37% in test [4].

Take `CN(C)Cc1ccc(CSCCNc2nnc(-c3ccccc3)c(-c3ccccc3)c2[N+](=O)[O-])o1`: the pIC50 against Acetylcholinesterase was 6.72; against Cholinesterase, 5.15. Further, the inhibition in test [1] worked out at 76%; in test [2], 51%; in test [3], 73%; in test [4], 48%.

On to `CN(C)Cc1ccc(CSCCNC(=O)c2ccccc2-c2ccccc2C(=O)O)o1`, for which the pIC50 against Acetylcholinesterase and at Cholinesterase was less than 4.30 throughout.

`CN(C)Cc1ccc(CSCCNC(=O)Cc2ccccc2Nc2c(Cl)cccc2Cl)o1` had a pIC50 against Cholinesterase of 5.12. For the same compound, the inhibition amounted to 60.1% in test [1], 27.4% in test [2], 43.5% in test [3] and 47.3% in test [4].

Regarding `CN(C)Cc1ccc(CSCCNc2ncccn2)o1`, the results for the pIC50 against Acetylcholinesterase and at Cholinesterase were 4.79 and 5.12, respectively. Also, the inhibition was 56.2% in test [1], 50.8% in test [2], 24.3% in test [3] and 24.9% in test [4].

On to `Cc1cc([N+](=O)[O-])c(NCCSCc2ccc(CN(C)C)o2)nn1`, for which the pIC50 against Acetylcholinesterase was 6.17; on Cholinesterase, 4.55. The inhibition in test [1] stood at 79%; in test [2], 78%; in test [3] it was 46%; in test [4], 57%.
